Experimental data from the CheMixHub viscosity set.

Test: xn = mol fraction of the nth substance listed

O=P([O-])(O)O.[Na+] + O
viscosity [mPa·s]
Conditions	298.15 K	303.15 K	308.15 K	313.15 K
101 kPa, x1 = 0.0018	0.9216	0.8373	0.7482	–
101 kPa, x1 = 0.0054	0.9881	0.887	0.8017	–
101 kPa, x1 = 0.0089	1.077	0.9691	0.8669	–
101 kPa, x1 = 0.012	1.17	1.053	0.9301	–
101 kPa, x1 = 0.016	1.284	1.151	1.008	–
101.32 kPa, x1 = 0.1245	20.44	–	–	–
101.32 kPa, x1 = 0.1772	–	–	–	28.59

O=S(=O)([O-])NC1CCCCC1.[Rb+] + O
viscosity [mPa·s], 101 kPa
Conditions	x1 = 0.00091	x1 = 0.001356	x1 = 0.001833	x1 = 0.002303	x1 = 0.002722	x1 = 0.003185	x1 = 0.003618	x1 = 0.004055	x1 = 0.004552
293.15 K	1.024	1.036	1.048	1.061	1.072	1.084	1.096	1.108	1.123
298.15 K	0.9105	0.9203	0.9315	0.9419	0.9516	0.962	0.9723	0.9828	0.9953
303.15 K	0.8157	0.8243	0.8343	0.8431	0.8516	0.8608	0.8696	0.8789	0.8887
313.15 K	0.6675	0.6747	0.6824	0.6896	0.696	0.7034	0.7104	0.7177	0.7252
323.15 K	0.5585	0.564	0.5704	0.5762	0.5814	0.5874	0.5931	0.5992	0.6057

CCCCOCCOCCO + O=C1CCCN1
298.15 K, 101 kPa
Conditions	viscosity [mPa·s]
x1 = 0.0024	14.13
x1 = 0.0056	14.02
x1 = 0.0086	13.96
x1 = 0.012	13.86
x1 = 0.0205	13.67
x1 = 0.0421	13.08
x1 = 0.0638	12.61
x1 = 0.0865	12.19
x1 = 0.1132	11.69
x1 = 0.1508	11.11
x1 = 0.1869	10.55
x1 = 0.2192	10.19
x1 = 0.2979	9.265
x1 = 0.3786	8.558
x1 = 0.3996	8.385
x1 = 0.4122	8.298
x1 = 0.4764	7.823
x1 = 0.5469	7.347
x1 = 0.6024	7.035
x1 = 0.6618	6.715
x1 = 0.7147	6.434
x1 = 0.7823	6.121
x1 = 0.8345	5.879
x1 = 0.8792	5.707
x1 = 0.9066	5.597
x1 = 0.9407	5.469
x1 = 0.9748	5.264
x2 = 0.0063	5.156

Cc1cccc(C)c1 + O=C1CCCO1
viscosity [mPa·s], 101.33 kPa
Conditions	x2 = 0.1012	x2 = 0.214	x2 = 0.3091	x2 = 0.4022	x2 = 0.5343	x2 = 0.5955	x2 = 0.7101	x2 = 0.8371	x2 = 0.9027
293.15 K	0.69	0.777	0.859	0.948	1.093	1.169	1.332	1.544	1.671
298.15 K	0.648	0.725	0.798	0.88	1.016	1.088	1.235	1.437	1.552
303.15 K	0.61	0.679	0.752	0.829	0.951	1.013	1.147	1.325	1.431
308.15 K	0.573	0.636	0.692	0.761	0.875	0.936	1.06	1.226	1.323

CC(O)CC(C)(C)O (centres undefined) + O=Cc1ccccc1
viscosity [mPa·s], 101 kPa
Conditions	x1 = 0.0921	x1 = 0.1829	x1 = 0.2762	x1 = 0.3752	x1 = 0.4712	x1 = 0.5787	x1 = 0.6736	x1 = 0.775	x1 = 0.8828
308.15 K	1.337	1.484	1.717	2.062	2.679	3.484	4.864	7.155	10.92
318.15 K	1.004	1.149	1.368	1.7	2.157	2.801	3.804	5.903	9.45

CC(O)CC(C)(C)O (centres undefined) + O=[N+]([O-])c1ccccc1
viscosity [mPa·s], 101 kPa
Conditions	x1 = 0.0918	x1 = 0.1905	x1 = 0.2926	x1 = 0.3853	x1 = 0.4886	x1 = 0.5862	x1 = 0.6895	x1 = 0.7727	x1 = 0.8991
308.15 K	1.724	1.903	2.194	2.574	3.288	4.074	5.512	7.423	12.38
318.15 K	1.332	1.478	1.703	2.012	2.606	3.222	4.571	6.127	10.82

OC1COCOC1 + OCC(O)CO
viscosity [mPa·s], 101 kPa
Conditions	x1 = 0.0998	x1 = 0.2002	x1 = 0.3	x1 = 0.3996	x1 = 0.5003	x1 = 0.5984	x1 = 0.7011	x1 = 0.8002	x1 = 0.9
298.15 K	832.9	733.8	627.8	520	421.6	329.6	242.5	168.5	92.07
308.15 K	378.7	330.3	278.4	227	181	134.8	99.8	67.79	40.63
318.15 K	190	163.4	139	110.6	85.95	62.08	44.85	32.54	20.88

O=S1(=O)CCCC1 + OCCO
303.15 K, 101 kPa
Conditions	viscosity [mPa·s]
x1 = 0.0503	11.92
x1 = 0.0993	10.75
x1 = 0.2006	8.926
x1 = 0.2984	7.669
x1 = 0.393	6.857
x1 = 0.4553	6.555
x1 = 0.5015	6.443
x1 = 0.5484	6.443
x1 = 0.6038	6.548
x1 = 0.7048	7.013
x1 = 0.8065	7.683
x1 = 0.9034	8.532
x1 = 0.9426	9.018

OC1COCOC1 + OCCO
viscosity [mPa·s], 101 kPa
Conditions	x1 = 0.1002	x1 = 0.2002	x1 = 0.3	x1 = 0.4	x1 = 0.5004	x1 = 0.5997	x1 = 0.7	x1 = 0.8001	x1 = 0.8999
298.15 K	16.97	16.11	14.94	13.85	12.88	12.74	12.81	12.79	12.89
308.15 K	11.6	10.98	10.23	9.473	8.583	8.457	8.572	8.812	8.878
318.15 K	8.193	7.647	7.214	6.665	6.111	5.995	5.915	6.167	6.474
